In the supplement of paper PMC11061612:

Experiments:
Assay in all cases: Bliss excess, mean over the matrix (fraction); higher = more synergy
[1] = tested on: BV-173 (Chronic Myelogenous Leukemia)
Method in brief: (§1)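 After 24 hours at 37°C and 5% CO2 in 1536-well plates, cells in DMEM/F12 or RPMI plus 10% FBS received two-drug dose matrices for 72 hours. Viability came from CellTiter-Glo 2.0 luminescence and was scaled as inhibition, anchored at 0 by vehicle wells and at 1 by blank wells. Combination Emax is taken as the second-highest inhibition in the matrix, and Bliss excess as the observed combination effect less EA + EB − EA·EB, with EA and EB the single-agent effects.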

EW-18 (Ewing's Sarcoma) = tested on: EW-18 (Ewing's Sarcoma)
Method in brief: as §1

GI-1 (Glioblastoma) = tested on: GI-1 (Glioblastoma)
Method in brief: as §1

[2] = tested on: HSC-2 (Oral Cavity Carcinoma)
Method in brief: as §1

[3] = tested on: HuP-T3 (Pancreatic Carcinoma)
Method in brief: as §1

[4] = tested on: JHH-7 (Hepatocellular Carcinoma)
Method in brief: as §1

[5] = tested on: KINGS-1 (Low Grade Glioma)
Method in brief: as §1

[6] = tested on: KLE (Endometrial Carcinoma)
Method in brief: as §1

[7] = tested on: KYSE-150 (Esophageal Squamous Cell Carcinoma)
Method in brief: as §1

[8] = tested on: MFE-319 (Endometrial Carcinoma)
Method in brief: as §1

NB7 (Neuroblastoma) = tested on: NB7 (Neuroblastoma)
Method in brief: as §1

[9] = tested on: NCI-H2347 (Lung Adenocarcinoma)
Method in brief: as §1

[10] = tested on: NCI-H322M (Lung Adenocarcinoma)
Method in brief: as §1

[11] = tested on: NCI-H513 (Other Solid Carcinomas)
Method in brief: as §1

[12] = tested on: NCI-N87 (Gastric Carcinoma)
Method in brief: as §1

[13] = tested on: OCUM-1 (Gastric Carcinoma)
Method in brief: as §1

RPMI-7951 (Melanoma) = tested on: RPMI-7951 (Melanoma)
Method in brief: as §1

[14] = tested on: SNU-C1 (Colorectal Carcinoma)
Method in brief: as §1

[15] = tested on: TGBC11TKB (Gastric Carcinoma)
Method in brief: as §1

U-87-MG (Glioblastoma) = tested on: U-87-MG (Glioblastoma)
Method in brief: as §1

Structure (SMILES) | Bliss excess [1] | Bliss excess (EW-18 (Ewing's Sarcoma)) | Bliss excess (GI-1 (Glioblastoma)) | Bliss excess [2] | Bliss excess [3] | Bliss excess [4] | Bliss excess [5] | Bliss excess [6] | Bliss excess [7] | Bliss excess [8] | Bliss excess (NB7 (Neuroblastoma)) | Bliss excess [9] | Bliss excess [10] | Bliss excess [11] | Bliss excess [12] | Bliss excess [13] | Bliss excess (RPMI-7951 (Melanoma)) | Bliss excess [14] | Bliss excess [15] | Bliss excess (U-87-MG (Glioblastoma))
NC1(C(=O)N[C@@H](CCO)c2ccc(Cl)cc2)CCN(c2ncnc3[nH]ccc23)CC1 [Capivasertib] + Cn1cnc2c(F)c(Nc3ccc(Br)cc3Cl)c(C(=O)NOCCO)cc21 [Selumetinib] (first compound max 10 µM, 7x7, partner max 10 µM) | 0.0219 | -0.0219 | 0.0399 | 0.0675 | -0.0559 | -0.0455 | 0.0272 | -0.011 | 0.0676 | 0.0088 | -0.0045 | -0.0158 | 0.0035 | -0.0383 | 0.01 | -0.0299 | -0.0415 | -0.0085 | 0.0387 | -0.0316
Cc1c2c(nn1C)CSCc1cc(n(C)n1)CSc1cc(c3ccccc3c1)OCCCc1c(C(=O)O)n(C)c3c-2c(Cl)ccc13 [AZD5991] + C1CN(CCC1(C(=O)N[C@@H](CCO)C2=CC=C(C=C2)Cl)N)C3=NC=NC4=C3C=CN4 [Capivasertib] (first compound max 1 µM, 7x7, partner max 3 µM) | -0.0621 |  | 0.045 | 0.138 | -0.0186 | -0.0118 | -0.0468 | -0.01 | 0.039 | 0.111 | -0.0133 | -0.0313 | 0.0198 | -0.0056 | -0.0516 | -0.0032 | 0.0035 | -0.0004 | 0.0116 | 0.0264
Cc1c2c(nn1C)CSCc1cc(n(C)n1)CSc1cc(c3ccccc3c1)OCCCc1c(C(=O)O)n(C)c3c-2c(Cl)ccc13 [AZD5991] + Cc1cc2ncnn2cc1Nc1ncc2c(n1)n(C1CCOCC1)c(=O)n2C [AZD7648] (first compound max 1 µM, 7x7, partner max 10 µM) | -0.0512 | -0.0254 | 0.0021 |  | -0.0677 | -0.0598 | -0.0095 | -0.0598 | -0.0195 | -0.0534 | -0.0079 | -0.0472 | -0.05 | -0.0127 | -0.0367 | -0.0093 | -0.0317 | -0.0742 | -0.0954 | -0.0311
COc1nnc2ccc(N3CCC(c4ccc(OCCN5CCN(C)C(=O)[C@H]5C)cc4)CC3)nn12 [AZD5153] + CN(CC[C@H](CSC1=CC=CC=C1)NC2=C(C=C(C=C2)S(=O)(=O)NC(=O)C3=CC=C(C=C3)N4CCC(CC4)[C@H](C5=CC=CC=C5C6=CC=C(C=C6)Cl)O)S(=O)(=O)C(F)(F)F)CCO [AZD4320] (first compound max 1 µM, 7x7, partner max 1 µM) | -0.0879 | 0.0033 |  |  | 0.0559 |  |  | 0.0847 | 0.0321 | -0.0369 |  | -0.042 | 0.0066 | -0.0177 |  |  | 0.0467 |  |  | 0.099
CC(=O)c1c(C)c2cnc(Nc3ccc(N4CCNCC4)cn3)nc2n(C2CCCC2)c1=O [Palbociclib] + CN(CC[C@H](CSC1=CC=CC=C1)NC2=C(C=C(C=C2)S(=O)(=O)NC(=O)C3=CC=C(C=C3)N4CCC(CC4)[C@H](C5=CC=CC=C5C6=CC=C(C=C6)Cl)O)S(=O)(=O)C(F)(F)F)CCO [AZD4320] (first compound max 10 µM, 7x7, partner max 1 µM) | -0.0524 | -0.0118 |  |  | -0.074 |  |  | -0.0276 | -0.109 | -0.0554 |  | -0.109 | -0.0711 | -0.0718 |  |  | 0.0312 |  |  | -0.0528
C[C@@H](c1ccc2nccn2c1)n1nnc2ncc(-c3cnn(C)c3)nc21 [Savolitinib] + CN(CC[C@H](CSC1=CC=CC=C1)NC2=C(C=C(C=C2)S(=O)(=O)NC(=O)C3=CC=C(C=C3)N4CCC(CC4)[C@H](C5=CC=CC=C5C6=CC=C(C=C6)Cl)O)S(=O)(=O)C(F)(F)F)CCO [AZD4320] (first compound max 1 µM, 7x7, partner max 1 µM) | -0.0004 | -0.0221 |  |  | -0.0586 |  |  | -0.0664 | -0.0775 | -0.0736 |  | -0.0474 | -0.0487 | -0.0473 |  |  | -0.0203 |  |  | -0.143
Cc1c2c(nn1C)CSCc1cc(n(C)n1)CSc1cc(c3ccccc3c1)OCCCc1c(C(=O)O)n(C)c3c-2c(Cl)ccc13 [AZD5991] + C=CCn1c(=O)c2cnc(Nc3ccc(N4CCN(C)CC4)cc3)nc2n1-c1cccc(C(C)(C)O)n1 [AZD1775] (first compound max 1 µM, partner max 1 µM) | -0.072 | -0.0102 | -0.0109 | -0.0132 | -0.0454 | 0.0348 | -0.0037 | -0.0616 | 0.0496 | 0.0074 | -0.0084 | -0.0393 | -0.023 | -0.003 | -0.0275 | -0.0148 |  | -0.0839 | -0.0383 | 0.0392
CN(CCO)CC[C@H](CSc1ccccc1)Nc1ccc(S(=O)(=O)NC(=O)c2ccc(N3CCC([C@@H](O)c4ccccc4-c4ccc(Cl)cc4)CC3)cc2)cc1S(=O)(=O)C(F)(F)F [AZD4320] + Cn1cnc2c(F)c(Nc3ccc(Br)cc3Cl)c(C(=O)NOCCO)cc21 [Selumetinib] (first compound max 1 µM, 7x7, partner max 3 µM) | -0.018 | 0.0109 | 0.0069 | 0.0195 | -0.0166 | -0.0214 | 0.0328 | 0.0087 | -0.0152 | 0.0645 | 0.0397 | 0.0288 | 0.0818 | 0.0445 | 0.0201 | 0.0319 | -0.006 |  | 0.0843 | -0.0117
